These results are taken from patent US9315678B2, “Affinity of hardly soluble or insoluble substance solvent by water-soluble xylan” (Ezaki Glico Co., Ltd., priority 2006, dated 2016).

Common to all, as to format: physicochemical
The nature of data set [1]: Carbon nanotube solubilizing capability of saccharide aqueous solutions (absorbance of supernatant at 500 nm). As to conditions: for amount of the solubilized carbon nanotube (in words): at the investigated concentrations of Table 1; for A500: about 4 mg SWCNT-1 per 1 mL, ultra sound 5 min. As to the method:
(§1) The amount of the carbon nanotube dissolved in the solution can be measured, for example, by recovering the carbon nanotube by centrifugation at 70,000×g for 15 minutes and measuring the weight thereof. Alternatively, as described in the literature “Chem. Commun.”, P. 193 (2001), the concentration of the carbon nanotube has quite a high correlation with the absorbance at 500 nm, and the water-soluble xylan has almost no absorption at the wavelength. Thus, the concentration of the carbon nanotube is easily determined by measuring the absorbance of the solution at 500 nm, unless the solution contains any other substances having absorption at around 500 nm. In the case where a hardly soluble or insoluble substance is used as another substance, the method for measuring the concentration of the substance in the solution can be appropriately selected in depending on the substance.
A solubilizing capability of the water-soluble xylan was compared with those of other saccharides. As the water-soluble xylan, glucuronoxylan (manufactured by Institute of Chemistry, Slovak Academy of Sciences; the number average molecular weight: 18,000; xylose residue: 4-O-methyl-D-glucuronic acid reside=10:1; no acetylation) was used. For comparison, various saccharide solutions of amylose (the number average molecular weight of 2,900), pectin (derived from citrus fruit), polygalacturonic acid, methylcellulose, fucoidan, xanthan gum, carboxymethyl cellulose, an Abelmoschus manihot extraction liquid, a Hydrangea paniculata extraction liquid, gum arabic, β-1,3-glucan (schizophyllan, curdlan), and xylo-oligosaccarides (polymerization degrees of 2 and 5) were used.
To 1 mL of each of the saccharide aqueous solutions, about 4 mg of the single layer carbon nanotube powder (SWCNT-1 manufactured by Shenzhen Nanotech Port Co., Ltd.) was added and then stirred for about 10 seconds with a Vortex mixer. The mixture was applied ultra sound with a bath type sonicator (UT-205 manufactured by Sharp Corporation) at a room temperature (15° C. to 20° C.) for 5 minutes to dissolve the carbon nanotube. The obtained solution was centrifuged at 2,200×g for 10 minutes, and then the supernatant thereof was collected. The amount of the dissolved carbon nanotube was estimated by measuring the absorbance of the supernatant at 500 nm. The saccharides vary from one another in solubility to water.
Within the same concentration range, the absorbances at 500 nm of the solutions containing another saccharide were 3 or less.

Assay in data set [2]: as above
To be noted: Example 2-2, FIG. 4; concentration dependency.

Data set [3] in a line: Preparation of carbon nanotube solution with water-soluble xylan: absorbance at 500 nm and dissolved carbon nanotube. As to the method:
as §1
As water-soluble xylan, glucuronoxylan (manufactured by Institute of Chemistry, Slovak Academy of Sciences; the number average molecular weight: 18,000; xylose residue: 4-O-methyl-D-glucuronic acid reside=10:1; no acetylation; derived from beech) was used. To 1 L of a 0.4 mg/mL glucuronoxylan aqueous solution, 2 g of a single-layer carbon nanotube powder (SWCNT-1 manufactured by Shenzhen Nanotech Port Co., Ltd.) was added, and then stirred with a magnetic stirrer. The mixture was sequentially applied ultra sound by an ultra sound dispersing machine (Model UH-600SR, HO-F36 flanged chip, RD-36 continuous holder; manufactured by SMT Co., Ltd.) at a room temperature (15° C. to 20° C.) for 130 minutes at a flow rate of 1 L/min to dissolve and disperse the carbon nanotube. The obtained solution was centrifuged at 2,200×g for 15 minutes, and then collected the supernatant. The supernatant was a blackish solution.
The obtained solution was centrifuged at 70,000×g for 10 minutes to collect the carbon nanotube as a precipitate. To the obtained precipitate, 50 mL of the aforementioned glucuronoxylan aqueous solution was added, and the carbon nanotube was dispersed by applying an ultra sound at a room temperature (15° C. to 20° C.) for 5 minutes with a bath type sonicator (Branson 1200).
To 10 L of the water-soluble xylan solution prepared by Preparative Example 1, 5 g of a single-layer carbon nanotube powder (SWCNT-1 manufactured by Shenzhen Nanotech Port Co., Ltd.) was added and then stirred. The mixture was sequentially applied ultra sound by an ultra sound dispersing machine (Model UH-600SR, HO-F36 flanged chip, RD-36 continuous holder; manufactured by SMT Co., Ltd.) at a room temperature (15° C. to 20° C.) for 90 minutes at a flow rate of 1 L/min to dissolve and disperse the carbon nanotube. The obtained solution was centrifuged at 2,200×g for 15 minutes, and then the supernatant was collected. […]

[4] abbreviates: saccharide 5 mg/mL (5.00), supernatant.
Where [5] appears, read: saccharide 10.00 mg/mL, supernatant.
Setting [6] is: saccharide 2.50 mg/mL, supernatant.
[7] abbreviates: saccharide 0.40 mg/mL, supernatant after 2,200xg 10 min.
The mark [8] stands for this setting: Example 1-1: 0.4 mg/mL glucuronoxylan, 2 g SWCNT-1 per 1 L, ultra sound 130 min, supernatant after 2,200xg 15 min.
The mark [9] stands for this setting: Example 1-1: 70,000xg precipitate re-dispersed in 50 mL glucuronoxylan solution, ultra sound 5 min.
Where [10] appears, read: saccharide 1.00 mg/mL, supernatant.
[11] abbreviates: saccharide 2.00 mg/mL, supernatant.

On to `OC1OC[C@@H](O[C@@H]2OC[C@@H](O)[C@H](O)[C@H]2O)[C@H](O)[C@H]1O` (stereo partly drawn), for which the “amount of the solubilized carbon nanotube (in words)” value (from here on “amount”) in data set [1] is on record as “did not exhibit solubilization of carbon nanotube at all”. This compound gave an A500 in data set [1] (saccharide 16 mg/mL, supernatant) of 0.00.

For `OC1OC[C@@H](O[C@@H]2OC[C@@H](O[C@@H]3OC[C@@H](O[C@@H]4OC[C@@H](O[C@@H]5OC[C@@H](O)[C@H](O)[C@H]5O)[C@H](O)[C@H]4O)[C@H](O)[C@H]3O)[C@H](O)[C@H]2O)[C@H](O)[C@H]1O` (stereo partly drawn), the “amount” value in data set [1] is reported as “did not exhibit solubilization of carbon nanotube at all”. For the same compound, the A500 in data set [1] (setting [4]) stood at 0.00.

amylose: the A500 in data set [1] (setting [4]) was 0.02; in data set [1] (setting [5]), 0.06.

As for “carboxymethyl cellulose [Carboxy Methylcellulose]”, in data set [1], the “amount” value was “close to that when using the water-soluble xylan”. The values for the A500 in data set [1] (setting [6]) and in data set [1] (setting [5]) were 5.64 and 2.37, respectively.

The compound curdlan had an A500 in data set [1] (setting [7]) of 0.02.

Consider fucoidan, for which the “amount” value in data set [1] was “close to that when using the water-soluble xylan”. In addition, the figures for the A500 in data set [1] (setting [6]) and in data set [1] (setting [5]) were 1.33 and 6.80, respectively.

Take glucuronoxylan [Water-soluble Xylan]: the “amount” value in data set [1] is reported as “largest”. In data set [1] (setting [7]), this compound had an A500 of 10.70. The “saccharide concentration showing the maximum absorbance at 500 nm” value in data set [2] stood at 0.2 mg/mL. Also, in data set [3] (setting [8]), the “absorbance at 500 nm” value worked out at 7.57 and the “carbon nanotube contained in solution” value is reported as “about 282 μg/mL”. In data set [3] (setting [9]), the “absorbance at 500 nm” value turned out to be 122 and the “carbon nanotube contained in solution” value is recorded as “about 4.5 mg/mL”.

Consider gum arabic, for which the “amount” value in data set [1] was “close to that when using the water-soluble xylan”. Moreover, the values for the A500 in data set [1] (setting [10]) and in data set [1] (setting [5]) were 0.73 and 4.30, respectively.

Regarding methylcellulose, the A500 in data set [1] (setting [10]) is 0.16; in data set [1] (setting [11]), 0.80.

Consider pectin, for which, in data set [1], the “amount” value is listed as “close to that when using the water-soluble xylan”. The A500 in data set [1] (setting [6]) is 3.48; in data set [1] (setting [5]), 6.28.

For the compound polygalacturonic acid, in data set [1], the “amount” value is given as “close to that when using the water-soluble xylan”. Besides, the A500 in data set [1] (saccharide 1.90 mg/mL, supernatant) is reported as 2.18; in data set [1] (saccharide 2.70 mg/mL, supernatant), 5.26.

Take schizophyllan: the A500 in data set [1] (saccharide 0.20 mg/mL, supernatant) is on record as 0.12; in data set [1] (setting [7]), 0.95.

As to xanthan gum, the “amount” value in data set [1] is “close to that when using the water-soluble xylan”. Besides, the A500 in data set [1] (setting [10]) amounted to 2.79; in data set [1] (setting [11]), 6.91.
